# ChEMBL document CHEMBL1201862, “PubChem BioAssay data set” (2004)
# Structures can show the parent of a compound that is named as a salt. The source made the active and inactive calls.
# Columns and labels:
# [1] = target: Sphingosine 1-phosphate receptor 2 (Homo sapiens, UniProt O95136); assay: Dose Response Cell Based Assay for Agonists of the S1P2 Receptor. [Related pubchem assays: 729, 736, 843 ]; format: functional
# [2] = HIV-1 Vif–A3G interaction blockers – biochemical, TR-FRET, GST-Vif 1-94, biotin-A3G peptide, dose response retest, primary screen (AID 1117319); format: functional;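 also: TR-FRET signal of purified GST-Vif binding a biotinylated A3G peptide; inhibitors lower the FRET signal by blocking Vif and A3G binding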
# [3] = Fluorescence Cell-Based Dose Response to Identify Inhibitors of Thrombin Receptor-Activating Peptide SFLLRN-Mediated P-Selectin Induction on Platelets. [Related pubchem assays: 1663 (Primary HTS), 1889 (retest at dose ), 1891 (counterscreen), 1678 (Project Summary)]; format: functional
# [4] = Luminescence Cell-Based Dose Confirmation HTS to Identify Inhibitors of Platelet Dense Granule Release. [Related pubchem assays: 1663 (Primary HTS), 1678 (Summary of Project)]; format: functional
# [5] = target: Luciferin 4-monooxygenase (Photinus pyralis, UniProt P08659); assay: inhibition of purified Photinus pyralis luciferase – biochemical, luminescence, dose response (AID 1891)
# Chain of Luciferin 4-monooxygenase (P08659 whole entry, the tested form may be a part): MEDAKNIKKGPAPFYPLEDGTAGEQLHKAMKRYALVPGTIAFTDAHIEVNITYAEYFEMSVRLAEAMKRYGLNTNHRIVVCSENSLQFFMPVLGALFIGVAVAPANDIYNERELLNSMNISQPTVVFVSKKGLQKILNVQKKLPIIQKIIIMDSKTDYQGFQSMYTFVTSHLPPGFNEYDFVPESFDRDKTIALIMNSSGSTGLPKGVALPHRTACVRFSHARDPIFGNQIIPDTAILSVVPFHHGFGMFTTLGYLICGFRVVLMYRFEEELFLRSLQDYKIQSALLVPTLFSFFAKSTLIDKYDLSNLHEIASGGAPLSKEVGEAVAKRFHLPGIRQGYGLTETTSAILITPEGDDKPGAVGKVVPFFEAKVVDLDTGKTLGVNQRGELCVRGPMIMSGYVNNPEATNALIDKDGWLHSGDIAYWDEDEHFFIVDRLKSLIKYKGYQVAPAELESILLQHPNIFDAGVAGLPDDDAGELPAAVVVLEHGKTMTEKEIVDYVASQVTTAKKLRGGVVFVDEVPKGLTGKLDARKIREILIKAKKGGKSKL
# [6] = viability loss in CEM21 cells – cell-based, CellTiter-Glo luminescence, cherry-picked, cytotoxicity control for viral fusion inhibitor project, dose response (AID 652042); format: functional;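 also: potency for signal decrease meaning cytotoxicity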
# [7] = A549 cell cytotoxicity, dose response, cytotoxicity control, plate reader, cherry-pick, antagonist series (AID 743412); format: functional, cell-based
# [8] = viability loss in A549 lung cancer cells – cell-based, cherry-picks, […], cytotoxicity control, dose response (AID 1053119); format: functional
# [9] = blockers of bursicon-stimulated LGR2 cAMP reporter – cell-based, HEK293, CRE-luciferase reporter, cherry pick, set 2, dose response (AID 743343); format: functional;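 also: transfected cells were stimulated with diluted bursicon conditioned medium after compound addition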
# [10] = viability loss in HepG2 hepatoma cells – cell-based, cherry-picks, set 5, cytotoxicity control, dose response (AID 1053118); format: functional
# [11] = viability loss in HEK293 cells – cell-based, plate reader, cherry-picked samples, cytotoxicity control, dose response (AID 743446); format: functional
# [12] = Dd2 parasite growth inhibition in erythrocytes – SYBR Green, dry powder samples, set 9, dose response (AID 1159568); format: functional, cell-based
# [13] = toxicity toward HepG2 liver cells – cell-based, plate reader, cherry-pick, antagonist series, cytotoxicity control, dose response (AID 743416); format: functional
# [14] = blockade of melanocortin 4 receptor signaling – cell-based, plate reader, cherry pick, counter-screen for LGR2 antagonist project, dose response (AID 743444); format: functional;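 also: transfected HEK 293 cells stimulated with alpha-MSH peptide; potency of inhibitors of the alpha-MSH evoked signal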
# Genome polyprotein = Genome polyprotein (Hepatitis C virus, UniProt Q2Q167); assay: disruption of hepatitis C core self-association – biochemical, TR-FRET, dose response (AID 2159); set-up: species or system Hepacivirus hominis;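 also: blocks dimerization of HCV core protein measured by TR-FRET between tagged core106 pairs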
# Chain of Genome polyprotein (Q2Q167 whole entry): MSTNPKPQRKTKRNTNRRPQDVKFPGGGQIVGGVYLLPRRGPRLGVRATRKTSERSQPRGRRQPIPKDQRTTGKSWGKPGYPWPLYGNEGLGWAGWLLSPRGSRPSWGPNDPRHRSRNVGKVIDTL
# SUMO-activating enzyme [15] = target: T1, SUMO-activating enzyme (Homo sapiens, UniProt Q9UBT2); assay: blockers of SAE1/SAE2–UBC9 SUMO transfer – biochemical, HTRF, uHTS, primary screen (AID 2006); format: protein-complex assay
# T1 sequence (Q9UBE0 whole entry): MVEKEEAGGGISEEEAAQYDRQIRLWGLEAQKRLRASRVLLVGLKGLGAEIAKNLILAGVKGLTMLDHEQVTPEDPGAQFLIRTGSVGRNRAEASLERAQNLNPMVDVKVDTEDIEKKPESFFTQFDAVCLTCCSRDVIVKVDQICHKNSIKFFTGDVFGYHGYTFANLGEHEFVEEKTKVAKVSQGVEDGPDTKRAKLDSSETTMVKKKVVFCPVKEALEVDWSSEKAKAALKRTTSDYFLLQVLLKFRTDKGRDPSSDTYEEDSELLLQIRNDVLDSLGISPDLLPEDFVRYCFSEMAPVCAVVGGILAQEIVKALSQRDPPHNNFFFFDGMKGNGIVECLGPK
# T1 sequence (Q9UBT2 whole entry): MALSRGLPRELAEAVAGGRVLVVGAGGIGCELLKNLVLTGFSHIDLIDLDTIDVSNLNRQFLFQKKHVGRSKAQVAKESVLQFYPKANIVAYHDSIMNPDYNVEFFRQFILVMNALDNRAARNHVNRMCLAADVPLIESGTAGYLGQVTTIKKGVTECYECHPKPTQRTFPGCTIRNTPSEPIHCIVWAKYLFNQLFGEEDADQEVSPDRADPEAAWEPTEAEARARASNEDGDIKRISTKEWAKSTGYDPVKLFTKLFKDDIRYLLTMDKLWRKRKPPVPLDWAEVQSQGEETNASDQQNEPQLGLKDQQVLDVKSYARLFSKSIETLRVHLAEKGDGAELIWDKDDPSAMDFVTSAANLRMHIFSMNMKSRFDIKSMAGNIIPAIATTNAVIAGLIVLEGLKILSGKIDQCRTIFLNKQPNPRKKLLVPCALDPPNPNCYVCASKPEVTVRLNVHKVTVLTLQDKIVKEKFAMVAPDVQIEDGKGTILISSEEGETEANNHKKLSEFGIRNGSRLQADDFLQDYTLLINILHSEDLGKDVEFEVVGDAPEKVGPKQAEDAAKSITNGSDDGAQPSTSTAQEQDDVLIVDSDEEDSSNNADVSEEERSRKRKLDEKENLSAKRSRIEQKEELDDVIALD
# SUMO-activating enzyme [16] = target: T1, SUMO-activating enzyme; assay: blockers of UBC9-mediated SUMO conjugation – biochemical, AlphaScreen, SUMOylation inhibitor project, confirmation (AID 2018); format: functional
# [17] = target: Induced myeloid leukemia cell differentiation protein Mcl-1 (Homo sapiens, UniProt Q07820); format: functional
# Chain of Induced myeloid leukemia cell differentiation protein Mcl-1 (Q07820 whole entry): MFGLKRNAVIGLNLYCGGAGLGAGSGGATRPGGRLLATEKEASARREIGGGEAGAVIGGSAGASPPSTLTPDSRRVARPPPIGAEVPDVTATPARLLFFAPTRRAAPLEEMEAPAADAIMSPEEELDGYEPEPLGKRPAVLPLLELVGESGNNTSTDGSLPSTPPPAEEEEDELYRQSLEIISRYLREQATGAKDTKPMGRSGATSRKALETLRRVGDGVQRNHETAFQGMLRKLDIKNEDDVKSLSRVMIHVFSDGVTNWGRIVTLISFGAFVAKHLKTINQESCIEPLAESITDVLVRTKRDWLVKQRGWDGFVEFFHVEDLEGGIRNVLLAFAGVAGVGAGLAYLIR
# [18] = growth inhibition of PfATP4-mutant resistant parasites – NITD609-resistant line, SYBR Green, dry powder, dose response (AID 1159571); format: functional, cell-based;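 also: parasites synchronized at ring stage by sorbitol before testing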
# [19] = P. falciparum Dd2 growth inhibitors, dose response, SYBR Green, cherry-picked samples (AID 1159567); format: functional, cell-based
# [20] = Dd2 malaria parasite growth inhibition potency – SYBR Green, dry powder samples, dose response (AID 1159566); format: functional, cell-based;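 also: potency for growth inhibition with lower SYBR green DNA signal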
# [21] = growth inhibition of yeast DHODH-expressing 3D7 parasites – SYBR Green, dry powder samples, dose response (AID 1159570); format: functional, cell-based;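 also: parasite growth measured after 72 hours of compound exposure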
# [22] = Plasmodium falciparum Dd2 Sybr green parasite growth Measured in Cell-Based and Microorganism Combination System Using Plate Reader - 2153-01_Inhibitor_Dose_DryPowder_Activity_Set3.; format: functional
# [23] = Dd2 parasite growth inhibition in erythrocytes – SYBR Green, dry powder samples, set 4, dose response (AID 1159572); format: functional, cell-based
# [24] = target: G-protein coupled receptor 183 (Homo sapiens, UniProt P32249); assay: SAR confirmation of small molecule antagonists of the EBI2 receptor via a luminescent beta-arrestin assa.; format: functional
# Chain of G-protein coupled receptor 183 (P32249 whole entry): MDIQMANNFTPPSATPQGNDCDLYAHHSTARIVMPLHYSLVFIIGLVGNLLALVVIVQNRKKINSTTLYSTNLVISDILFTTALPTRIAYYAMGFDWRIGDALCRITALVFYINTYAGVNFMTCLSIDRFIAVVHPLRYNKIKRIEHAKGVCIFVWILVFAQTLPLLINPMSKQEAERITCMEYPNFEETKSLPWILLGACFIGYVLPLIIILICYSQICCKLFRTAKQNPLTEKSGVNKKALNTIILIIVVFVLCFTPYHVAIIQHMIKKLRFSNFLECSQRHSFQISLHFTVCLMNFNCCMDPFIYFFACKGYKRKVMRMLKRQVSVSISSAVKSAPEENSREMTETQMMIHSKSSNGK
# SN12K1 = assay: cells; format: functional; conditions: Homo sapiens, SN12K1
# P388/ADR = assay: cells; format: functional; conditions: Mus musculus
# Streptococcus = assay: GAS UMAA2166 growth inhibition – luminescence, BacTiterGlo, counter-screen for streptokinase expression inhibitor project, dose response (AID 1915); format: functional, organism-based;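 also: potency for reduction of bacterial viability or growth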
# Streptokinase A = target: T2, Streptokinase A (Streptococcus pyogenes serotype M1, UniProt P10520); assay: viability-normalized secreted streptokinase activity reduction – plasminogen activation absorbance, OD405, dose response (AID 1914); format: functional, Streptococcus pyogenes M1 GAS;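 also: secreted streptokinase activity via plasminogen activation per viability signal from cell pellet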
# T2 sequence (P10520 whole entry): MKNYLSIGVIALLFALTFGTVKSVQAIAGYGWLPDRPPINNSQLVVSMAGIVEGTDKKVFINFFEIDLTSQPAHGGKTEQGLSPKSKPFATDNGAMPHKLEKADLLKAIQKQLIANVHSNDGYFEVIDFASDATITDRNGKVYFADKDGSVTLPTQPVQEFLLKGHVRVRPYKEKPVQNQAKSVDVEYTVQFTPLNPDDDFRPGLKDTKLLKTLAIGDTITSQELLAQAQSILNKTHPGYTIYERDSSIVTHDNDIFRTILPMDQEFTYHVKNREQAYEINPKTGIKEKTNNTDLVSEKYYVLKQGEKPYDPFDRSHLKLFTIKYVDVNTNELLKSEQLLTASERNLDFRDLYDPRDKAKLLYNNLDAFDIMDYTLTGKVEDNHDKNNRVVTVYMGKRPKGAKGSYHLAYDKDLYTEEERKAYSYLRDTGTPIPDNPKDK
# [25] = Luminescence-based dose response cell-based high throughput screening assay for cytotoxic compounds using the IEC-6 intestinal epithelial cell line. [Related pubchem assays: 1858 (Summary AID.), 1825 (Counterscreen.), 1907 (Confirmation screen.)]; format: functional
# P388 = assay: cells; format: functional; conditions: Mus musculus, P388
# [26] = test system: Streptococcus sp. 'group A'; assay: Streptococcus pyogenes SK(-)GAS viability under kanamycin – luminescence, BacTiterGlo, confirmation, counter-screen for streptokinase expression inhibitor project, dose response (AID 1900); format: functional, organism-based
# [27] = Reduced DLD-1 viability, concentration-response, CellTiter-Glo luminescence (AID 1117352); format: functional
# [28] = HCT116 cell viability decrease, GSK3B pretreatment – CellTiter-Glo, IC50, dose response (AID 1117339); format: functional; conditions: HCT-116
# [29] = cytotoxicity toward Colo320 cells – cell-based, CellTiter-Glo luminescence, IC50, dose response (AID 1117334); format: functional; conditions: COLO 320
# [30] = CellTiter-Glo luminescence survival assay, SW480 colon tumor line, concentration-response curve, half-maximal inhibitory concentration (AID 1117338); format: functional
# [31] = SNU-C1 cell viability reduction, dose response, CellTiter-Glo luminescence (AID 1117323); format: functional, cell-based
# [32] = cytotoxicity toward HT-29 cells – cell-based, CellTiter-Glo luminescence, IC50, dose response (AID 1117330); format: functional
# [33] = RKO cell viability reduction, dose response, CellTiter-Glo luminescence (AID 1117322); format: functional
# [34] = cytotoxicity toward HCT116 cells – cell-based, CellTiter-Glo luminescence, IC50, dose response (AID 1117332); format: functional; conditions: HCT-116
# Chain of Sphingosine 1-phosphate receptor 2 (O95136 whole entry): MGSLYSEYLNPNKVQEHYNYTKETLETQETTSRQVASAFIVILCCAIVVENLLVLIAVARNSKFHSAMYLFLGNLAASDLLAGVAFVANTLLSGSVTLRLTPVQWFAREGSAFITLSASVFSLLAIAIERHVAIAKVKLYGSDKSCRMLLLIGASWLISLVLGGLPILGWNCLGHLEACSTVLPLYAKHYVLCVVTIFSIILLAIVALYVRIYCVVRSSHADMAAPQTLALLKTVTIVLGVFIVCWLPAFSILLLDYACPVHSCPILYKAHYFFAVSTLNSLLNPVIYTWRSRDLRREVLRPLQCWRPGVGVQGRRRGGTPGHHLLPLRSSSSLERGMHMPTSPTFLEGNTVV
smiles,measurement,setting,value
CCOC(=O)c1c(C)n(C)c2ccc(OCC(O)Cn3nc(C)cc3C)cc12 (stereo not given),EC50,[1],4.71 µM (active)
Cn1cc(CN2CCN(CCO)CC2)c(-c2ccc(Oc3ccccc3)cc2)n1,IC50,[2],> 100 µM (active)
CCc1ccc(S(=O)(=O)N/N=C\c2ccc([N+](=O)[O-])o2)cc1,EC50,[3],< 30 µM (active)
same,EC50,[4],2.02 µM (active)
same,EC50,[5],> 112 µM (not active)
O=C(C[C@@H]1C[C@@H]2c3cc(NC(=O)c4ccc5c(c4)OCO5)ccc3O[C@@H]2[C@@H](CO)O1)NCc1ccc(Oc2ccccc2)cc1,AC50,[6],26.1 µM (active)
same,AC50,[7],21.2 µM (active)
same,AC50,[8],30.2 µM (active)
same,AC50,[9],33.3 µM (active)
same,AC50,[10],37.1 µM (active)
same,AC50,[11],24.7 µM (active)
same,AC50,[12],5.69 µM (active)
same,AC50,[13],27.7 µM (active)
same,AC50,[14],7.28 µM (active)
COc1ccccc1/C=C/C=c1\sc2nc(=O)c(Cc3ccccc3)nn2c1=O,IC50,Genome polyprotein,> 49.8 µM (not active)
same,IC50,SUMO-activating enzyme [15],11.8 µM (active)
same,IC50,SUMO-activating enzyme [16],8.53 µM (active)
CN(C)c1ccc(/C=N/N(Cc2ccccc2)c2ccccc2)cc1,IC50,[17],1.52 µM (not active)
N#C[C@H]1[C@@H](c2ccc(C#CC3CCCC3)cc2)[C@@H](CO)N1S(=O)(=O)Cc1ccccc1,AC50,[18],3.23 µM (active)
same,AC50,[19],2.73 µM (active)
same,AC50,[20],0.982 µM (active)
same,AC50,[21],2.06 µM (active)
same,AC50,[22],3.05 µM (active)
COc1ccc2c3c([nH]c2c1)[C@H](CO)N(C(C)=O)CC31CCN(C(=O)CN2CCOCC2)CC1,AC50,[23],2.59 µM (active)
CC(C)c1ccc(CN2CCN(C(=O)/C=C/c3ccc(Br)cc3)CC2)cc1,IC50,[24],0.00592 µM (active)
N=c1ccn2c(n1)O[C@H]1[C@H](O)[C@@H](CO)O[C@H]12 [ANCITABINE HYDROCHLORIDE],GI50,SN12K1,0.191 µM (active)
same,GI50,P388/ADR,0.205 µM (active)
same,EC50,Streptococcus,53.1 µM (active)
same,EC50,Streptokinase A,> 150 µM (not active)
same,IC50,[25],1.79 µM (active)
same,GI50,P388,0.103 µM (active)
same,EC50,[26],3.2 µM (active)
CCCCCCCC(=O)OCC(COC(=O)CCCCCCC)OC(=O)CCCCCCC [TRICAPRILIN],IC50,[27],> 20 µM (inactive)
same,IC50,[28],> 20 µM (inactive)
same,IC50,[29],> 20 µM (inactive)
same,IC50,[30],> 20 µM (inactive)
same,IC50,[31],> 20 µM (inactive)
same,IC50,[32],> 20 µM (inactive)
same,IC50,[33],> 20 µM (inactive)
same,IC50,[34],> 20 µM (inactive)
